Assay [1] relates to rat articular chondrocytes. As to the kind of experiment: DNA hypoploidy / cell cycle analysis by flow cytometry (apoptosis). Type of assay: cell-based. The following applies: 30 μM cilostazol, 1.5 mM oleate; n=4. The procedure: Rat articular chondrocytes for primary culture were isolated from knee joint cartilage slices by enzymatic digestion for 1 h with 0.2% type II collagenase (381 units/mg) in DMEM. After the isolated cells were collected by brief centrifugation, they were resuspended in DMEM supplemented with 10% (v/v) FBS, […] streptomycin and 50 units/ml penicillin (Gibco). The cells were plated on culture dishes at a density of 5×10^4 cells/cm^2. The medium was replaced every 2 days, and they reached confluence after approximately 5 days in culture. In each experiment, the cells from three animals were pooled and analyzed three times. FFA were dissolved in absolute ethanol at a concentration of 500 mM and diluted to final concentrations of FFAs with the appropriate concentration of 1% (w/v) FFA-free BSA. Controls were incubated with equal concentrations of FFA-free BSA containing ethanol. […] Cells were washed twice with PBS, and fixed with cold 70% ethanol at 4° C. overnight. The fixed cells were pelleted and ethanol was removed by washing twice with PBS containing 1% bovine serum albumin (BSA). The cells were resuspended in 1 ml of PBS containing 11 Kunitz U/ml RNase A, incubated at 4° C. for 30 min and washed once with BSAPBS. Cells were resuspended in PI solution (50 μg/ml) and incubated at 37° C. for 30 min in dark. […]
(In general: In flow cytometry, cells or beads pass a laser one at a time.)

For assay [2], the system named is lipid droplets (LD) in rat articular chondrocytes. Briefly: Lipid droplet staining (Nile red, BODIPY), confocal microscopy and quantification. It is filed as cell-based. The protocol: Rat articular chondrocytes for primary culture were isolated from knee joint cartilage slices by enzymatic digestion for 1 h with 0.2% type II collagenase (381 units/mg) in DMEM. After the isolated cells were collected by brief centrifugation, they were resuspended in DMEM supplemented with 10% (v/v) FBS, […] streptomycin and 50 units/ml penicillin (Gibco). The cells were plated on culture dishes at a density of 5×10^4 cells/cm^2. The medium was replaced every 2 days, and they reached confluence after approximately 5 days in culture. In each experiment, the cells from three animals were pooled and analyzed three times. FFA were dissolved in absolute ethanol at a concentration of 500 mM and diluted to final concentrations of FFAs with the appropriate concentration of 1% (w/v) FFA-free BSA. Controls were incubated with equal concentrations of FFA-free BSA containing ethanol. […] Cells cultured on a coverslip were incubated with diluted Nile red or BODIPY 493/503. Some sections were double-labelled with TUNEL and BODIPY 493/503 and counterstained with Hoechst 33342. Fluorescence images were observed and analyzed using a Zeiss LSM 510 laser-scanning confocal microscope (Goettingen, Germany). Twenty cells from each experiment were observed and auantification of fluorescence intensity of the confocal images were obtained with the use of ImageJ software. Fluorescence intensity was expressed as AU.

In assay [3] the test system is FSP27. As to the kind of experiment: Western blot of FSP27 protein in articular chondrocytes. The following applies: 30 μM cilostazol, 1.5 mM oleate; n=4. Type of assay: cell-based, rat. The procedure:
(§1) Rat articular chondrocytes for primary culture were isolated from knee joint cartilage slices by enzymatic digestion for 1 h with 0.2% type II collagenase (381 units/mg) in DMEM. After the isolated cells were collected by brief centrifugation, they were resuspended in DMEM supplemented with 10% (v/v) FBS, […] streptomycin and 50 units/ml penicillin (Gibco). The cells were plated on culture dishes at a density of 5×10^4 cells/cm^2. The medium was replaced every 2 days, and they reached confluence after approximately 5 days in culture. In each experiment, the cells from three animals were pooled and analyzed three times. FFA were dissolved in absolute ethanol at a concentration of 500 mM and diluted to final concentrations of FFAs with the appropriate concentration of 1% (w/v) FFA-free BSA. Controls were incubated with equal concentrations of FFA-free BSA containing ethanol. […] Cell (2×10^6) were washed twice with ice-cold PBS. Cells were resuspended in lysis buffer [200 ll of icecold solubilizing buffer (300 mM NaCl, 50 mM Tris-Cl (pH 7.6), 0.5% Triton X-100, protease inhibitor cocktail)] and incubated at 4° C. for 30 min. The lysates were centrifuged at 14,000 rpm for 20 min at 4° C. The protein concentrations of the cell lysates were measured with the Bradford protein assay reagent (Bio-Rad). Then, 50 μg of proteins was loaded onto 15 SDS-PAGE. The separated proteins were transferred to nitrocellulose membranes (Amersham Pharmacia Biotech, Piscataway, N.J., USA) and probed with each antibody. Immunostaining with the antibodies was carried out using the Super Signal West Pico enhanced chemiluminescence substrate and detected with LAS-3000PLUS.

Assay [4] deals with HFD-induced cartilage destruction. As to the kind of experiment: HFD-induced OA mouse model, histologic examination of cartilage. Type of assay: in vivo. The following applies: mice fed HFD 25 weeks, cilostazol 30 mg/kg/day orally for the last 10 weeks; n=10. The procedure:
All procedures for animal study were approved by the Committee on Animal Investigations at Dong-A University (DIACUC-15-12). Seven-week-old male C57BL/6 mice were obtained from Samtoko (Osan, Korea). Mice were maintained in a temperature-controlled room (22° C.) on a 12:12 h light-dark cycle and free access to water and food. HFD-induced OA mouse model. Sixty mice were fed a normal chow diet for one week and then mice were fed an HFD or a SD for 25 weeks. Ten mice from each diet were used histologically examine the effect of high fat diet. Forty mice were used to examine the effect of cilostazol. Mice fed a SD or HFD for 15 weeks were orally administered cilostazol at concentrations of 30 mg/kg/day for additional 10 weeks. SD+vehicle mice (n=10) were fed a SD and received DMSO. SD+cilostazol mice (n=10) were fed a SD and received cilostazol. HFD+vehicle mice (n=10) were fed a HFD and received DMSO. HFD+cilostazol mice (n=10) were fed a HFD and received cilostazol. Tissue preparation and histologic examination. Animals were killed by ether inhalation. Whole knee joints were removed by dissection, fixed in PBS (pH 7.4) containing 4% paraformaldehyde, decalcified in 12.5% EDTA, dehydrated, and embedded in paraffin blocks. Five-micrometer microsections were prepared and stained with hematoxylin and eosin and with Safranin O-fast green.

Assay [5] has as its system caspase-3 and -7. As to the kind of experiment: Western blot of apoptosis-related factors (caspase-3 and -7 activation). The following applies: 30 μM cilostazol, 1.5 mM oleate; n=4. It is filed as cell-based, rat. The protocol: as §1, with “The lysates were centrifuged at 14,000 rpm for 20 min at 4° C.” left out, “Then, 50 μg of proteins was loaded onto 15 SDS-PAGE. The separated proteins were transferred to nitrocellulose membranes (Amersham Pharmacia Biotech, Piscataway, N.J., USA) and probed with each antibody.” left out
For orientation: A western blot detects proteins with antibodies after separation by electrophoresis.

Turning to `O=C1CCc2cc(OCCCCc3nnnn3C3CCCCC3)ccc2N1` [cilostazol], the “effect on oleate-induced apoptosis (histograms)” value in assay [1] is recorded as “prevented 1.5 mM oleate-induced apoptosis”. Besides, the “LD size and LD accumulation” value in assay [2] (30 μM cilostazol, 1.5 mM oleate) was “increases LD size and LD accumulation”. Further, the LD accumulation result in assay [2] (cilostazol in cells treated with 0.4 mM oleate and 1.6 mM palmitate) is given as “augmented the LD accumulation”. Also, in assay [2] (cilostazol versus 1.5 mM oleate alone, n=4), the “total LD volume” value is “significantly increased”. Also, the “oleate-induced LD fragmentation” value in assay [2] (cilostazol, 1.5 mM oleate, n=4) was “prevented oleate-induced LD fragmentation”. The “effect on oleate-induced downregulation of FSP27” value in assay [3] was “prevented the 1.5 mM oleate-induced downregulation of FSP27”. The HFD-induced cartilage destruction entry in assay [4] is reported as “markedly prevented the HFD-induced cartilage destruction”. Besides, the “effect on oleate-induced activation of caspase-3 and -7” value in assay [5] is on record as “prevented”.

Source of the values: patent US20180369327A1, “METHOD FOR TREATING OR PREVENTING OSTEOARTHRITIS” (Dong-A University Research Foundation for Industry-Academy …, priority 2017, published 2018).
